Results reported in patent publication US8415312B2, “Compound which is a nystatin derivative” (Biosergen AS, priority 2007, dated 2013).
≈ marks a conversion by molar mass, not a printed value. Where “and” joins values, the source holds several entries; their conditions need not be identical. Identical values can stand only once.

Columns and labels:
[1] = system: Candida albicans (strain 14053 ATCC); assay: Model of the candidiasis sepsis of mice, kidney burden; assay type: in vivo; conditions: for Candida albicans burden in kidneys (Mean): day 5, n=3 mice
Protocol: In experiments used female mice of hybrids of first generation (C57B1/6xDBA/2)F1 (B6D2F1), weight 18-20 g., received from the Central farm “Kryukovo” of Russian Academies of Medical Science (RAMS). Animals were maintained in Institute' vivarium in plastic cages (with hardwood bedding in environmentally controlled room: 24±1° C., 12/12 hours light/dark cycle) on a standard diet of bricketed forages with an easy approach to drinking water (ad libitum). After 2-week quarantine healthy animals were used in experimental work.
A preparation of comparison was amphotericin B (pure). Solutions of tested preparations prepared ex tempore by the technique specified by the customer.
Animals were housed on 3 mice and infected intravenously with culture Candida albicans in a doze 1.0 million CFU/mouse in volume of 0.1 ml. It is necessary to note, that doze Candida albicans remained a constant in all experiments. In 30 minutes after infection to mice carried out the first intravenous introduction of tested preparations in corresponding dozes in volume of 0.2 ml (with a speed of 0.2 ml/30 second).
Experiment has been planned in such a manner that in each experiment one doze (both for amphotericin B was used, and for tested preparations), each doze entered daily within four days, since day of infection (0, 1, 2 and 3 days). At each experiment there was a group untreated, infected with Candida albicans animals. Also there was a group “placebo”, intact (not infected) animals, which intravenously (in the same volume as medical preparations) injected 0.2 ml of solvent—phosphatic buffer +5% glucose (1:1).
On the post challenge 5th day of experiment, mice were weighed and euthanized (killed) by a cervical dislocation. Then, in sterile conditions, Candida albicans burdens were determined by viable counting of homogenates from the kidneys. The kidneys, which were removed aseptically and weighed, pounded in porcelain mortars with sterile corundum, did dilutions of the received suspensions and sowed on Petri dishes with agar Saburo, incubated for 48 hours at temperature 35° C., then counted up developed colonies Candida albicans and recalculated their quantity on 1 g of kidney' tissue. The first dilution was 10^−1. Zero result at this cultivation accepted for 5 CFU/g.
For the basic criterion of an assessment of the investigated preparations the maximal effect of the Amphotricin B was accepted (effective dose, ED).
For significant accepted distinctions of average at P≦0.05 at comparison by Student t-criterion.

[2] = system: Fusarium oxysporum VKM F-140; assay: Antifungal susceptibility study (1), broth microdilution MIC; assay type: cell-based; conditions: lowest concentration preventing any visible growth, read at 48 hours, 35° C., RPMI 1640 pH 7.0
How it was run: (§1)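 Broth microdilution was run at pH 7.0 with compounds diluted from DMSO solutions and mixed 1:1 with conidial inoculum. Spore suspensions were adjusted to OD530 0.09-0.11 for A. niger or 0.15-0.17 for F. oxysporum, then diluted 1:50. Plates were incubated at 35° C without agitation, and MIC was read at 48 hours as absence of visible growth.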

[3] = system: Aspergillus niger ATCC 16404; assay: as above; assay type: cell-based; conditions: lowest concentration preventing any visible growth, read at 48 hours, 35° C., RPMI 1640 pH 7.0
How it was run: as §1

[4] = system: human blood erythrocytes; assay: In vitro toxicity study, haemolysis (Table 10); assay type: cell-based; conditions: for Haemolysis of human blood erythrocytes: individual blood samples # 1-3, listed as Amp B
[5] = system: erythrocytes; assay: In vitro toxicity study, haemolysis (Tables 11 and 12); assay type: cell-based, horse; conditions: for Haemolysis of erythrocytes, Mean ± SE: 5 μg/mL (Table 11); for Haemolysis of erythrocytes: 5 μg/mL, individual blood samples # 1-3 (Table 11)
[6] = Solubility in 5% glucose; assay type: physicochemical
[7] = system: yeasts and filamentous fungi (moulds); assay: Antifungal susceptibility study (1), overall comparison across the test organisms; assay type: cell-based; conditions: for anti-fungal activity compared with Amphotericin B and S44HP: Table 5 MICs; for antifungal activity, rank within the series: Tables 7 and 8
Protocol: The organisms used for susceptibility testing were: Candida albicans ATCC 14053, Cryptococcus humicolus ATCC 9949, Aspergillus niger ATCC 16404 and Fusarium oxysporum VKM F-140 (=CMI, IMI 90473). Organisms were stored on potato dextrose agar […] 50% glycerol solution at -70° C. For short-term storage, stock cultures were stored on agar […] 4° C. The cultures of yeasts were sub-cultured onto Sabouraud dextrose (SAB) agar and incubated for 24 hours at 35° C. (Candida albicans) or for 48 hours at 25° C. (Cryptococcus humicolus) to obtain a freshly grown pure culture. The cultures of moulds were sub-cultured onto potato dextrose agar and incubated for 7 days at 35° C. […] (Fusarium oxysporum) to ensure maximum sporulation. Sterile 96-well flat-bottomed microtitration plates were used for testing. 100 μl of diluted inocula were dispensed into each microdilution well containing 100 μl of the double dilutions of compounds. Drug-free and yeast/mould-free controls were included. Microdilution trays were incubated at 35° C. (Candida albicans and moulds) or 25° C. (Cryptococcus humicolus) without agitation and observed for the presence or absence of visible growth. […] Minimal inhibitory concentrations (MICs) were read at 48 hours.

[8] = dose 0.08 mg/kg/d i.v. for four days
[9] = dose 0.16 mg/kg/d i.v. for four days
[10] = dose 0.31 mg/kg/d i.v. for four days
[11] = dose 0.62 mg/kg/d i.v. for four days
[12] = dose 1.25 mg/kg/d i.v. for four days
[13] = dose 2.5 mg/kg/d i.v. for four days

Row | Structure (SMILES) | Candida albicans burden in kidneys (Mean) [1, 8] [CFU/g] | Candida albicans burden in kidneys (Mean) [1, 9] [CFU/g] | Candida albicans burden in kidneys (Mean) [1, 10] [CFU/g] | Candida albicans burden in kidneys (Mean) [1, 11] [CFU/g] | Candida albicans burden in kidneys (Mean) [1, 12] [CFU/g] | MIC Fusarium oxysporum VKM F-140 [2] [µg/mL] | MIC Aspergillus niger ATCC 16404 [3] | Haemolysis of erythrocytes, Mean ± SE [5] [%] | anti-fungal activity compared with Amphotericin B and S44HP [7] | Candida albicans burden in kidneys (Mean) [1, 13] [CFU/g] | antifungal activity, rank within the series [7] | other results
1 | C[C@@H]1[C@H](O)[C@@H](C)/C=C/C=C/C=C/C=C/C=C/C=C/C=C/[C@H](O[C@@H]2O[C@H](C)[C@@H](O)[C@H](N)[C@@H]2O)C[C@@H]2O[C@](O)(C[C@@H](O)C[C@@H](O)[C@H](O)CC[C@@H](O)C[C@@H](O)CC(=O)O[C@H]1C)C[C@H](O)[C@H]2C(=O)O [Amphotericin B, reference compound] | 105000 | 85667 | 34667 | 10667 | 1667 | 4 (≈ 4.33 µM) | 1 µg/mL (≈ 1.08 µM) | 39.7 ± 1.2 |  |  |  | dose of maximal activity as % from MTD ([1]; 1.25 mg/kg/d): ≈ 62%; dose of maximal activity (effective dose, ED) ([1]; highest studied dose, criterion of activity): 1.25 mg/kg/day; Haemolysis of human blood erythrocytes, MEAN ± SE ([4]; 2 μg/mL): 6.1 ± 1.0%; Haemolysis of human blood erythrocytes ([4]; 2 μg/mL): 4.4% and 5.9% and 8.0%; Haemolysis of human blood erythrocytes, MEAN ± SE ([4]; 5 μg/mL): 30.3 ± 0.6%; Haemolysis of human blood erythrocytes ([4]; 5 μg/mL): 30% and 29.5% and 31.5%; Haemolysis of erythrocytes ([5]; listed as Amp B): 39% and 38% and 42%; solubility in 5% glucose [6]: < 1000 µg/mL
2 | CC1C=CC=CC=CC=CC=CC=CC=CC(OC2OC(C)C(O)C(N)C2O)CC2OC(O)(CC(O)C(O)CCC(O)CC(O)CC(O)CC(=O)OC(C)C(C)C1O)CC(O)C2C (centres unmarked) [Compound 1] |  |  |  |  |  | 2 (≈ 2.24 µM) | 1 µg/mL and 2 µg/mL |  | comparable anti-fungal activity to Amphotericin B and S44HP |  |  | MIC Aspergillus niger ATCC 16404 ([3]; listed as Comp 1): 2 µg/mL (≈ 2.24 µM)
3 | CC1C=CC=CC=CC=CC=CC=CC=CC(OC2OC(C)C(O)C(N)C2O)CC2OC(O)(CC(O)C(O)CCC(O)CC(O)CC(O)CC(=O)OC(C)C(C)C1O)CC(O)C2C(=O)NCCCN(C)C (centres unmarked) [Compound 11, S44HP DMAP Amide] |  |  |  |  |  | 2 (≈ 1.98 µM) | 2 µg/mL (≈ 1.98 µM) | 3.2 ± 0.1 | comparable anti-fungal activity to Amphotericin B and S44HP |  |  | Haemolysis of erythrocytes [5]: 3% and 3.4% and 3.3%
4 | CC1C=CC=CC=CC=CC=CC=CC=CC(OC2OC(C)C(O)C(N)C2O)CC2OC(O)(CC(O)C(O)CCC(O)CC(O)CC(O)CC(=O)OC(C)C(C)C1O)CC(O)C2C.NC(CCC(=O)O)C(=O)O [Compound 29, Compound 1 L-glutamate] |  | 102667 |  | 12500 | 2557 | 2 | 2 µg/mL |  |  | 133 | most active salt of Compound 1 | Candida albicans burden in kidneys (Mean) ([1]; dose 5 mg/kg/d i.v. for four days, zero result accepted for 5 CFU/g): 5 CFU/g
5 | CC1O[C@@H](O[C@H]2/C=C/C=C/C=C/C=C/C=C/C=C/C=C/[C@H](C)[C@@H](O)[C@@H](C)[C@H](C)OC(=O)C[C@H](O)C[C@H](O)C[C@H](O)CC[C@@H](O)[C@H](O)C[C@]3(O)C[C@H](O)[C@@H](C)[C@H](C2)O3)[C@H](O)C(NC(=O)[C@@H](N)CCCCN)[C@@H]1O (stereo partly drawn) [Compound 51, N-L-Lysyl-Compound 1] | 56667 |  | 22667 | 17833 | 9400 | 2 (≈ 1.96 µM) | 1 µg/mL (≈ 0.978 µM) |  |  | 5 | most active derivative in this series with antifungal activity slightly higher than the parent antibiotic | 
